Results from ChEMBL document CHEMBL4265923, “In vitro and in vivo characterization of a novel, highly potent p53-MDM2 inhibitor” (Bioorg Med Chem Lett, 2018).

Tests used:
SJSA-1 [1] = test: Antiproliferative activity against human SJSA1 cells after 72 hrs by YO-PRO-1 iodide staining-based assay; format: functional; conditions: SJSA-1, 72 h
[2] = Half life in rat liver microsomes; format: ADME, microsome
[3] = Intrinsic clearance in rat liver microsomes; format: ADME, microsome
[4] = Intrinsic clearance in mouse liver microsomes; format: ADME, microsome
[5] = Intrinsic clearance in human liver microsomes; format: ADME, microsome
[6] = Clearance in Sprague-Dawley rat at 1 mg/kg, iv; format: ADME, organism-based; conditions: in vivo
Rattus norvegicus [7] = test: Upregulation of MDM2 mRNA expression level in po dosed nude rat tumor xenografted with human SJSA1 cells by RT-PCR method
Rattus norvegicus [8] = test: Toxicity in nude rat xenografted with human SJSA1 cells assessed as increase in body weight at 1 to 5 mg/kg, po qd for 14 days; format: organism-based; conditions: in vivo, 336 h
Rattus norvegicus [9] = test: Upregulation of p21 mRNA expression level in po dosed nude rat tumor xenografted with human SJSA1 cells by RT-PCR method
[10] = Fraction absorbed of compound by PAMPA; format: ADME
SJSA-1 [11] = test: Antitumor activity against human SJSA1 cells xenografted in nude rat assessed as tumor regression at 5 mg/kg, po qd for 14 days; format: functional
[12] = Tmax in nude rat xenografted with human SJSA1 cells at 1 to 5 mg/kg, po qd; format: ADME, organism-based; conditions: in vivo
SJSA-1 [13] = test: Antitumor activity against human SJSA1 cells xenografted in nude rat assessed as tumor regression at 3 mg/kg, po qd for 14 days; format: functional
[14] = Half life in dog liver microsomes; format: ADME, Canis lupus familiaris, microsome
SJSA-1 [15] = test: Antitumor activity against human SJSA1 cells xenografted in po dosed nude rat assessed as tumor growth inhibition administered once daily for 14 days; format: functional, organism-based
Rattus norvegicus [16] = test: Dose normalized AUC in Sprague-Dawley rat at 1 mg/kg, iv; format: ADME, organism-based; conditions: in vivo
[17] = Intrinsic clearance in dog liver microsomes; format: ADME, Canis lupus familiaris, microsome
[18] = Half life in monkey liver microsomes; format: ADME, Macaca mulatta, microsome; conditions: rhesus monkey
Rattus norvegicus [19] = test: Dose normalized AUC in Sprague-Dawley rat at 3 mg/kg, po; format: ADME, organism-based; conditions: in vivo
[20] = Half life in mouse liver microsomes; format: ADME, microsome
[21] = Half life in human liver microsomes; format: ADME, microsome
[22] = Intrinsic clearance in monkey liver microsomes; format: ADME, Macaca mulatta, microsome; conditions: rhesus monkey
[23] = Oral bioavailability in Sprague-Dawley rat at 3 mg/kg; format: ADME, organism-based; conditions: in vivo
Rattus norvegicus [24] = test: Upregulation of PUMA mRNA expression level in po dosed nude rat tumor xenografted with human SJSA1 cells by RT-PCR method
Rattus norvegicus [25] = test: Dose normalized Cmax in Sprague-Dawley rat at 3 mg/kg, po; format: ADME, organism-based; conditions: in vivo
[26] = Tmax in Sprague-Dawley rat at 3 mg/kg, po; format: ADME, organism-based; conditions: in vivo
SJSA-1 [27] = test: Antitumor activity against human SJSA1 cells xenografted in nude rat assessed as reduction in tumor volume at 1 mg/kg, po qd for 14 days; format: functional; parameters: scale not given: the % may be the effect or the level left
[28] = Half life in Sprague-Dawley rat at 1 mg/kg, iv; format: ADME, organism-based; conditions: in vivo
[29] = Volume of distribution at steady state in Sprague-Dawley rat at 1 mg/kg, iv; format: ADME, organism-based; conditions: in vivo, read-out: Vdss

COc1ccccc1-c1nc2c(n1C(C)C)[C@H](c1ccc(Cl)cc1C)N(c1cc(Cl)ccc1C)C2=O
GI50 (SJSA-1 [1]): 0.062 to 0.064 µM
half-life [2]: 3.6 min
CLint [3]: 385 µL/min/mg

COc1ccccc1-n1nc2c(c1C(C)C)[C@H](c1ccc(Cl)cc1C)N(c1cc(Cl)ccc1C)C2=O
CLH [4]: 495 µL/min/mg
CLH [5]: 115 µL/min/mg
CLint [3]: 385 µL/min/mg

COc1ncc(-c2nc3c(n2C(C)C)[C@H](c2ccc(Cl)cc2C)N(c2cc(Cl)ccc2C)C3=O)c(OC)n1
clearance [6]: 32 mL/min/kg
Activity (Rattus norvegicus [7]): Dose-dependent effect
Activity (Rattus norvegicus [8]): Non-Toxic
Activity (Rattus norvegicus [9]): Dose-dependent effect
Fa [10]: 99%
Activity (SJSA-1 [11]): 98%
Tmax [12]: 180 min
Activity (SJSA-1 [13]): 32%
half-life [14]: 40 min
GI50 (SJSA-1 [1]): 0.011 µM
half-life [2]: 39 min
CLH [4]: 36 µL/min/mg
CLH [5]: 72 µL/min/mg
TGI (SJSA-1 [15]): Dose-dependent effect
AUC/dose (Rattus norvegicus [16]): 1080 nM·h
CLH [17]: 35 µL/min/mg
half-life [18]: 81 min
AUC/dose (Rattus norvegicus [19]): 719 nM·h
half-life [20]: 39 min
half-life [21]: 17 min
CLH [22]: 20 µL/min/mg
bioavailability [23]: 67%
Activity (Rattus norvegicus [24]): Dose-dependent effect
Cmax/dose (Rattus norvegicus [25]): 75 nM/(mg/kg)
Tmax [26]: 120 min
Activity (SJSA-1 [27]): 40%
half-life [28]: 108 min
CLint [3]: 35 µL/min/mg
Vd [29]: 4.4 L/kg

COc1ccccc1-c1cc2c(n1C(C)C)C(c1ccc(Cl)cc1C)N(c1cc(Cl)ccc1C)C2=O (configuration not stated)
GI50 (SJSA-1 [1]): 0.216 µM

COc1ccncc1-c1nc2c(n1C(C)C)[C@H](c1ccc(Cl)cc1C)N(c1cc(Cl)ccc1C)C2=O
GI50 (SJSA-1 [1]): 0.345 µM
half-life [2]: 12 min
CLint [3]: 117 µL/min/mg

COc1ncncc1-c1nc2c(n1C(C)C)C(c1ccc(Cl)cc1C)N(c1cc(Cl)ccc1C)C2=O (racemic)
GI50 (SJSA-1 [1]): 0.111 µM
half-life [2]: 8 min
CLint [3]: 178 µL/min/mg

COc1ccc(-c2nc3c(n2C(C)C)C(c2ccc(Cl)cc2C)N(c2cc(Cl)ccc2C)C3=O)c(OC)n1 (racemic)
GI50 (SJSA-1 [1]): 0.186 µM
half-life [2]: 20 min
CLint [3]: 69 µL/min/mg

COc1ncc(-c2nc3c(n2C(C)C)[C@@H](c2ccc(Cl)cc2C)N(c2cc(Cl)ccc2C)C3=O)c(OC)n1
GI50 (SJSA-1 [1]): 1 µM
half-life [2]: 56 min
CLint [3]: 25 µL/min/mg

COc1ccc(F)cc1-c1nc2c(n1C(C)C)C(c1ccc(Cl)cc1C)N(c1cc(Cl)ccc1C)C2=O (racemic)
GI50 (SJSA-1 [1]): 0.228 µM
half-life [2]: 3.3 min
CLint [3]: 460 µL/min/mg

COc1cccc(F)c1-c1nc2c(n1C(C)C)C(c1ccc(Cl)cc1C)N(c1cc(Cl)ccc1C)C2=O (racemic)
GI50 (SJSA-1 [1]): 0.276 µM
half-life [2]: 3.3 min
CLint [3]: 450 µL/min/mg

COc1ncc(-c2nc3c(n2C(C)C)C(c2ccc(Cl)cc2C)N(c2cc(Cl)ccc2C)C3=O)c(OC)n1 (racemic)
GI50 (SJSA-1 [1]): 0.026 µM
half-life [2]: 30 min
CLint [3]: 47 µL/min/mg
